Measurements published in PubChem BioAssay AID256 (DTP/NCI, 2004).
Values joined by “and” are separate entries in the source; they are usually repeats but may differ in a detail not shown here. Equal values may be shown once. Inconclusive results and toxic doses are left out. How the source made its calls: active means survival T/C of 150% or more; inactive means T/C below 125% in these data.

Tested on: CD2F1 mice, L1210 leukemia ip, survival T/C
Assay: NCI In Vivo Anticancer Drug Screen. Data for tumor model L1210 Leukemia (intraperitoneal) in CD2F1 (CDF1) mice
Conditions: higher = longer survival
Summary of the method: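 Activity against a transplanted murine tumor was judged by comparing the compound group with a vehicle group. The outcome in the treated animals was divided by that in the controls.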

[1] = endpoint: mean survival time, dose: 100.0 mg/kg/injection, schedule: Q04DX002 (ip), vehicle: saline with Tween-80
[2] = endpoint: mean survival time, dose: 50.0 mg/kg/injection, schedule: Q01DX009 (ip), vehicle: saline with Tween-80
[3] = endpoint: mean survival time, dose: 100.0 mg/kg/injection, schedule: Q01DX009 (ip), vehicle: saline with Tween-80
[4] = endpoint: mean survival time, dose: 200.0 mg/kg/injection, schedule: Q01DX009 (ip), vehicle: saline with Tween-80
[5] = endpoint: mean survival time, dose: 100.0 mg/kg/injection, schedule: Q04DX003 (ip), vehicle: saline with Tween-80
[6] = endpoint: mean survival time, dose: 200.0 mg/kg/injection, schedule: Q04DX003 (ip), vehicle: saline with Tween-80
[7] = endpoint: mean survival time, dose: 400.0 mg/kg/injection, schedule: Q01DX009 (ip), vehicle: saline with Tween-80
[8] = endpoint: mean survival time, dose: 400.0 mg/kg/injection, schedule: Q04DX003 (ip), vehicle: saline with Tween-80
[9] = endpoint: mean survival time, dose: 75.0 mg/kg/injection, schedule: Q01DX001 (ip), vehicle: saline
[10] = endpoint: mean survival time, dose: 100.0 mg/kg/injection, schedule: Q04DX003 (ip), vehicle: saline
[11] = endpoint: mean survival time, dose: 200.0 mg/kg/injection, schedule: Q04DX003 (ip), vehicle: saline
[12] = endpoint: mean survival time, dose: 400.0 mg/kg/injection, schedule: Q04DX003 (ip), vehicle: saline
[13] = endpoint: mean survival time, dose: 100.0 mg/kg/injection, schedule: Q04DX003 (ip), vehicle: Klucel (hydroxypropylcellulose) (HPC)
[14] = endpoint: mean survival time, dose: 200.0 mg/kg/injection, schedule: Q04DX003 (ip), vehicle: Klucel (hydroxypropylcellulose) (HPC)
[15] = endpoint: mean survival time, dose: 400.0 mg/kg/injection, schedule: Q04DX003 (ip), vehicle: Klucel (hydroxypropylcellulose) (HPC)

Measured: T/C

CCCC1C(=O)N=C(N)NC1=O (stereo not given)
inactive: endpoint: mean survival time, dose: 100.0 mg/kg/injection, schedule: Q01DX001 (ip), vehicle: Klucel (hydroxypropylcellulose) (HPC) 97 % of control | endpoint: mean survival time, dose: 200.0 mg/kg/injection, schedule: Q01DX001 (ip), vehicle: Klucel (hydroxypropylcellulose) (HPC) 104 % of control | endpoint: mean survival time, dose: 400.0 mg/kg/injection, schedule: Q01DX001 (ip), vehicle: Klucel (hydroxypropylcellulose) (HPC) 101 % of control

CCCCCCCCCCCCOP(OCC)OCCCCCCCCCCCC
inactive: endpoint: mean survival time, dose: 25.0 mg/kg/injection, schedule: Q04DX002 (ip), vehicle: saline with Tween-80 104 % of control | endpoint: mean survival time, dose: 50.0 mg/kg/injection, schedule: Q04DX002 (ip), vehicle: saline with Tween-80 101 % of control | [1] 96 % of control and 101 % of control

Cc1ccc2c(C)nc(N=C(N)N)nc2c1
inactive: endpoint: mean survival time, dose: 18.8 mg/kg/injection, schedule: Q01DX009 (ip), vehicle: saline 103 % of control | endpoint: mean survival time, dose: 37.5 mg/kg/injection, schedule: Q01DX009 (ip), vehicle: saline 96 % of control

C=CC/C=C/C(C)(C)C
inactive: [2] 103 % of control | [3] 100 % of control | [4] 100 % of control

CC1(C)C2C(Br)C3OC(=O)C(C2C(=O)O)C31 (stereo not given)
inactive: [3] 96 % of control | [5] 91 % of control | [4] 96 % of control | [6] 96 % of control | [7] 93 % of control | [8] 91 % of control

Cn1c(=O)sc2ccccc21
inactive: [1] 111 % of control | endpoint: mean survival time, dose: 200.0 mg/kg/injection, schedule: Q04DX002 (ip), vehicle: saline with Tween-80 114 % of control

O=C(CO)C(OC1OC(CO)C(O)C(O)C1O)C(O)C(O)CO (stereo not given)
inactive: endpoint: mean survival time, dose: 100.0 mg/kg/injection, schedule: Q01DX001 (ip), vehicle: saline 103 % of control | endpoint: mean survival time, dose: 200.0 mg/kg/injection, schedule: Q01DX001 (ip), vehicle: saline 97 % of control | endpoint: mean survival time, dose: 400.0 mg/kg/injection, schedule: Q01DX001 (ip), vehicle: saline 100 % of control

O=C(c1ccccc1)N(CCCCl)C(=O)N(CCCCl)C(=O)c1ccccc1
inactive: [5] 105 % of control | [6] 100 % of control | [8] 108 % of control

CSc1ccc(NC(=O)Nc2nccs2)cc1
inactive: endpoint: mean survival time, dose: 100.0 mg/kg/injection, schedule: Q01DX009 (ip), vehicle: saline sonified 103 % of control | endpoint: mean survival time, dose: 200.0 mg/kg/injection, schedule: Q01DX009 (ip), vehicle: saline sonified 106 % of control | endpoint: mean survival time, dose: 400.0 mg/kg/injection, schedule: Q01DX009 (ip), vehicle: saline sonified 100 % of control

CC12CCC(C(=O)C1)C1(C)CCCC(=O)C21 (stereo not given)
inactive: endpoint: mean survival time, dose: 75.0 mg/kg/injection, schedule: Q01DX001 (ip), vehicle: other 97 % of control

COc1cc(OC)c(NC(=O)NCc2ccco2)cc1Cl
inactive: endpoint: mean survival time, dose: 12.5 mg/kg/injection, schedule: Q01DX009 (ip), vehicle: saline with Tween-80 103 % of control | endpoint: mean survival time, dose: 25.0 mg/kg/injection, schedule: Q01DX009 (ip), vehicle: saline with Tween-80 95 % of control | [2] 88 % of control and 98 % of control | [4] 92 % of control

COc1ccc2cc(CC(=O)c3ccccc3)ccc2c1
inactive: [3] 100 % of control | [4] 96 % of control | [7] 90 % of control

c1ccc(/C(N=NC(c2ccccc2)(c2ccccc2)c2ccccc2)=C(/N=NC(c2ccccc2)(c2ccccc2)c2ccccc2)c2ccccc2)cc1
inactive: endpoint: mean survival time, dose: 100.0 mg/kg/injection, schedule: Q01DX001 (ip), vehicle: saline with Tween-80 91 % of control | endpoint: mean survival time, dose: 200.0 mg/kg/injection, schedule: Q01DX001 (ip), vehicle: saline with Tween-80 101 % of control | endpoint: mean survival time, dose: 400.0 mg/kg/injection, schedule: Q01DX001 (ip), vehicle: saline with Tween-80 89 % of control

CCC1c2cc(O)c(OC)cc2CCN1C (stereo not given)
inactive: [9] 106 % of control

CS(C)=O.[Cl-].[Cl-].[NH-]CC(O)C[N-]CC(O)CN.[Pt+4] (stereo not given)
inactive: endpoint: median survival time, dose: 10.0 mg/kg/injection, schedule: Q04DX003 (ip), vehicle: saline 97 % of control | endpoint: median survival time, dose: 20.0 mg/kg/injection, schedule: Q04DX003 (ip), vehicle: saline 111 % of control | endpoint: median survival time, dose: 40.0 mg/kg/injection, schedule: Q04DX003 (ip), vehicle: saline 108 % of control | endpoint: median survival time, dose: 50.0 mg/kg/injection, schedule: Q04DX003 (ip), vehicle: saline 94 % of control | endpoint: median survival time, dose: 80.0 mg/kg/injection, schedule: Q04DX003 (ip), vehicle: saline 98 % of control

CCc1nc2c(=O)n(C3OC(CO)C(O)C3O)cnc2o1 (stereo not given)
inactive: endpoint: mean survival time, dose: 100.0 mg/kg/injection, schedule: Q01DX005 (ip), vehicle: saline 100 % of control | endpoint: mean survival time, dose: 200.0 mg/kg/injection, schedule: Q01DX005 (ip), vehicle: saline 101 % of control

O=C(O)c1ccc(C(=O)O)c2c(C(=O)O)ccc(C(=O)O)c12
inactive: [3] 95 % of control | [10] 97 % of control | [4] 90 % of control | [11] 96 % of control | [12] 93 % of control

CCC(C)CC(N)O (stereo not given)
inactive: [9] 103 % of control | endpoint: mean survival time, dose: 150.0 mg/kg/injection, schedule: Q01DX001 (ip), vehicle: saline 97 % of control

c1ccc2snnc2c1
inactive: endpoint: mean survival time, dose: 100.0 mg/kg/injection, schedule: Q01DX001 (ip), vehicle: other 97 % of control | endpoint: mean survival time, dose: 200.0 mg/kg/injection, schedule: Q01DX001 (ip), vehicle: other 103 % of control | endpoint: mean survival time, dose: 400.0 mg/kg/injection, schedule: Q01DX001 (ip), vehicle: other 88 % of control

CCC1(C(=O)OC)CCC2C3CCC4CCCCC4(C)C3CCC21C (stereo not given)
inactive: endpoint: mean survival time, dose: 75.0 mg/kg/injection, schedule: Q04DX003 (sc), vehicle: steriod suspending solution 103 % of control | endpoint: mean survival time, dose: 150.0 mg/kg/injection, schedule: Q04DX003 (sc), vehicle: steriod suspending solution 101 % of control | endpoint: mean survival time, dose: 300.0 mg/kg/injection, schedule: Q04DX003 (sc), vehicle: steriod suspending solution 101 % of control

CC1(C)C2CCC1(CS(=O)(=O)O)C(=O)C2Br.[Ag] (stereo not given)
inactive: endpoint: mean survival time, dose: 100.0 mg/kg/injection, schedule: Q04DX003 (ip), vehicle: acetone 96 % of control

c1ccc2c(c1)CC1CCCCN1C2 (stereo not given)
inactive: endpoint: mean survival time, dose: 12.5 mg/kg/injection, schedule: Q01DX009 (ip), vehicle: Klucel (hydroxypropylcellulose) (HPC) 94 % of control | endpoint: mean survival time, dose: 12.5 mg/kg/injection, schedule: Q04DX003 (ip), vehicle: saline 95 % of control | endpoint: mean survival time, dose: 25.0 mg/kg/injection, schedule: Q01DX009 (ip), vehicle: Klucel (hydroxypropylcellulose) (HPC) 100 % of control | endpoint: mean survival time, dose: 25.0 mg/kg/injection, schedule: Q04DX003 (ip), vehicle: saline 93 % of control | endpoint: mean survival time, dose: 50.0 mg/kg/injection, schedule: Q01DX009 (ip), vehicle: Klucel (hydroxypropylcellulose) (HPC) 97 % of control | endpoint: mean survival time, dose: 50.0 mg/kg/injection, schedule: Q04DX003 (ip), vehicle: saline 95 % of control

CCOC(=O)/C=C(\C)N1CCCCC1
inactive: [10] 92 % of control | [11] 91 % of control | [12] 94 % of control

CC(=O)Nc1ccc([N+](=O)[O-])cc1C
inactive: endpoint: mean survival time, dose: 50.0 mg/kg/injection, schedule: Q04DX003 (ip), vehicle: saline with Tween-80 101 % of control | [5] 100 % of control | [6] 103 % of control

CN(C)c1ccc(/C=N/NC(=O)c2ccccc2N)c(Cl)c1
inactive: [3] 87 % of control | [4] 87 % of control

CCOC(=O)CN1CC(=O)Nc2ccccc21
inactive: [5] 95 % of control | [6] 98 % of control | [8] 111 % of control

c1ccc(N/N=C(/C[n+]2cc3ccccc3c3ccccc32)c2ccccc2)cc1
inactive: [13] 94 % of control | [14] 106 % of control | [15] 109 % of control

C1=CC2C3C=CC(CC3)C2CC1 (stereo not given)
inactive: [3] 103 % of control | [4] 98 % of control

CC(C)(C)CC(C)(C)c1ccc(OCCOc2ccc(CC(=S)N3CCOCC3)cc2)cc1
inactive: endpoint: mean survival time, dose: 100.0 mg/kg/injection, schedule: Q01DX009 (ip), vehicle: Klucel (hydroxypropylcellulose) (HPC) 96 % of control | [5] 93 % of control | endpoint: mean survival time, dose: 200.0 mg/kg/injection, schedule: Q01DX009 (ip), vehicle: Klucel (hydroxypropylcellulose) (HPC) 95 % of control | [6] 95 % of control | endpoint: mean survival time, dose: 400.0 mg/kg/injection, schedule: Q01DX009 (ip), vehicle: Klucel (hydroxypropylcellulose) (HPC) 98 % of control | [8] 87 % of control

NNC(=S)NC1CC2C=CC1C2 (stereo not given)
inactive: endpoint: mean survival time, dose: 6.25 mg/kg/injection, schedule: Q04DX003 (ip), vehicle: saline with Tween-80 95 % of control | endpoint: mean survival time, dose: 12.5 mg/kg/injection, schedule: Q04DX003 (ip), vehicle: saline with Tween-80 95 % of control | endpoint: mean survival time, dose: 25.0 mg/kg/injection, schedule: Q04DX003 (ip), vehicle: saline with Tween-80 97 % of control

O=C1CSc2ccccc2N1CCN1C(=O)CSc2ccccc21
inactive: [13] 90 % of control | [14] 86 % of control | [15] 86 % of control
